Values joined by “and” are separate entries in the source; they are usually repeats but may differ in a detail not shown here. Identical values can stand only once.
Experiments:
Experiment in all cases: In vitro DCF-G processing assay (UPLC)
Assay type in all cases: biochemical
[1] = molecular target: T1, Lactobacillus rhamnosus GUS (LrGUS) (Lacticaseibacillus rhamnosus, UniProt A0A2A5L2J1); details: DCF-G as substrate, 400 µM; pH 4.5; 37 °C
T1 sequence (A0A2A5L2J1 1-603): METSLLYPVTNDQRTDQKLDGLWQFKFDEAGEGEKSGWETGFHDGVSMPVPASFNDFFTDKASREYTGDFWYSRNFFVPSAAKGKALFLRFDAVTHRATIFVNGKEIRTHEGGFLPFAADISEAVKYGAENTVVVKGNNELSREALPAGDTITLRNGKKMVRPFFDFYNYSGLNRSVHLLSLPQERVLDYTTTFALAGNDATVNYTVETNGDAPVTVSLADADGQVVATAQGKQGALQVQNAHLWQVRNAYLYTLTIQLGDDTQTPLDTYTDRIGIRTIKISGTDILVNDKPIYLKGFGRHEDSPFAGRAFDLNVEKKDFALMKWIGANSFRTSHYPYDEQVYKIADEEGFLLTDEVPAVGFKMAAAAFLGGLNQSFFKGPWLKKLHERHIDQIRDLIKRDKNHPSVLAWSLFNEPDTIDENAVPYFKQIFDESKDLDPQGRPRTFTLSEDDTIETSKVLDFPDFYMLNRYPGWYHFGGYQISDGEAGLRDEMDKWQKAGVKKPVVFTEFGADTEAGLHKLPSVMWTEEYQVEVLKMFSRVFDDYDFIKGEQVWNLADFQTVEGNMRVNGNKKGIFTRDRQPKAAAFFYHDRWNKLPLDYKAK

[2] = molecular target: T2, Ruminococcus gnavus GUS (RgGUS) (Mediterraneibacter gnavus, UniProt A0A2N5PVZ8); details: DCF-G as substrate, 400 µM; pH 6.5; 37 °C
T2 sequence (A0A2N5PVZ8 1-603): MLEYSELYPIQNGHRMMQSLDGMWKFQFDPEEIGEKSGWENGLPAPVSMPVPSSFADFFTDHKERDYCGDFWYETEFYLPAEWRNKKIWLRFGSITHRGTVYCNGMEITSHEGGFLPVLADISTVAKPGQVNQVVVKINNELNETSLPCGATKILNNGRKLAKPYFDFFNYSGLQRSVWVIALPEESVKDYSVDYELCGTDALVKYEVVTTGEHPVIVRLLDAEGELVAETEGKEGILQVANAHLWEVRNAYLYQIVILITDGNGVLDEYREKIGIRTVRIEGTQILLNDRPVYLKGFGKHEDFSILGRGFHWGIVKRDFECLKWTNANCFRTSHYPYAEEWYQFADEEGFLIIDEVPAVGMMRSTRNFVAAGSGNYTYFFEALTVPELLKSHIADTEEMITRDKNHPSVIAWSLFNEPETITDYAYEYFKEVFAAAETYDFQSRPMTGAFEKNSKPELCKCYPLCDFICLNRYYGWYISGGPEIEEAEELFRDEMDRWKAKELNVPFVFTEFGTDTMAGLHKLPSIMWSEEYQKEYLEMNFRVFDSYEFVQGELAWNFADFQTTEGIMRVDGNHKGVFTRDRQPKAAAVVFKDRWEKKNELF

[3] = molecular target: T3, Bacteroides uniformis GUS (BuGUS) (Bacteroides uniformis, UniProt A0A078SUX9); details: DCF-G as substrate, 400 µM; pH 5.5; 37 °C
T3 sequence (A0A078SUX9 32-886): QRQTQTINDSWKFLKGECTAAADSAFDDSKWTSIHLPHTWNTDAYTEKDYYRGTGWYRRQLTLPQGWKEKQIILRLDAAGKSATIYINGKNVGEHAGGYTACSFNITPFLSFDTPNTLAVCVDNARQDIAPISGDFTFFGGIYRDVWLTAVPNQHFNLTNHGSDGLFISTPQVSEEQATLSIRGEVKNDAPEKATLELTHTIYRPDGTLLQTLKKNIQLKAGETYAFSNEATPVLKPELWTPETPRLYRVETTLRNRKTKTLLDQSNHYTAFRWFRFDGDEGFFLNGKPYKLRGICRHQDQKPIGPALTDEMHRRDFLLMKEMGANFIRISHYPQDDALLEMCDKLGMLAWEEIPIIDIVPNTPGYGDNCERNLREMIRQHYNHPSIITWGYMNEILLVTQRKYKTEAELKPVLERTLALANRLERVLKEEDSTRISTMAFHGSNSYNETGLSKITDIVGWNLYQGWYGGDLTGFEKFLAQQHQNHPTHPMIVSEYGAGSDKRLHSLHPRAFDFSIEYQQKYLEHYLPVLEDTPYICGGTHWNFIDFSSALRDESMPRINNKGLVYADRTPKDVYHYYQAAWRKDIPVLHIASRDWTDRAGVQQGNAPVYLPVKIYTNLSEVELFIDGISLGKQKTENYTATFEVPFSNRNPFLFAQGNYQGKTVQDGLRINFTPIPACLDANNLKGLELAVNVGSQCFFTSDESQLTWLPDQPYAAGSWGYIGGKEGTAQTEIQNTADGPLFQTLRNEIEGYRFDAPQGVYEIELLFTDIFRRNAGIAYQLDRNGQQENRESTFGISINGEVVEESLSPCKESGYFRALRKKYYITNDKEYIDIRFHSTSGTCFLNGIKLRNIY

For `O=C(Cc1ccccc1Nc1c(Cl)cccc1Cl)O[C@@H]1O[C@H](C(=O)O)[C@@H](O)[C@H](O)[C@H]1O` [DCF-G, Diclofenac acyl β-D-glucuronide], the “Apparent kcat” value [1] was 10 s⁻¹ and 10 ± 1 s⁻¹, the “Apparent kcat” value [2] was 24.0 s⁻¹ and 24.0 ± 0.5 s⁻¹ and the “Apparent kcat” value [3] was 10 ± 1 s⁻¹.
